Data from US20020115640A1, “Farnesyltransferase inhibitors” (priority 2000, published 2002).

These compounds were tested against T1, farnesyltransferase (Rattus norvegicus, UniProt Q02293+Q04631) (assay: Inhibition of farnesyltransferase (3H-farnesyldiphosphate / H-Ras filter assay)). Conditions: test compound at 10^−7 M; 3H-farnesyldiphosphate 0.6 μM, H-Ras 5.0 μM, 37° C., 30 minutes.
T1 construct: The enzyme can be purified according to Cell, 62: 81-88 (1990), utilizing steps one, two, and three; from tissue; host or cells: rat brain
Format: biochemical
From the text: The ability of the compounds of the present invention to inhibit farnesyltransferase can be measured according to the method described in J. Biol. Chem., 266: 14603 (1991) or J. Biol. Chem., 270:660-664 (1995). Procedures for determination of the inhibition of farnesylation of the oncogene protein Ras are described in J. Biol. Chem., 266:15575-15578 (1991) and U.S. Pat. No. 5,245,061. Inhibition of rat brain farnesyltransferase can also be measured in vitro using an Amersham Life Science commercial scintillation proximity assay kit and substituting a biotin-K Ras B fragment (0.1 μM final concentration) for the biotin-lamin substrate provided by Amersham. The enzyme can be purified according to Cell, 62: 81-88 (1990), utilizing steps one, two, and three. […] The percent inhibition of the farnesylation caused by the compounds of the present invention (at 10^−6 M) compared to an uninhibited control sample can be evaluated in the same Amersham test system.
The mixture was brought to 37° C., treated with enzyme, incubated for 30 minutes, treated with 1 M HCl/ethanol (1 mL) to stop the reaction, stirred for 15 minutes at room temperature, diluted with ethanol (2 mL), filtered through a 2.5 cm glass microfiber filter (Whatman) with ethanol rinses (4×2 mL). The glass transferred to a scintillation vial and treated with scintillation fluid (5 mL). The radioisotope retained on the glass fiber filter was counted and reflected the activity of the enzyme.

T1 sequence (Q02293 whole entry, one chain of several): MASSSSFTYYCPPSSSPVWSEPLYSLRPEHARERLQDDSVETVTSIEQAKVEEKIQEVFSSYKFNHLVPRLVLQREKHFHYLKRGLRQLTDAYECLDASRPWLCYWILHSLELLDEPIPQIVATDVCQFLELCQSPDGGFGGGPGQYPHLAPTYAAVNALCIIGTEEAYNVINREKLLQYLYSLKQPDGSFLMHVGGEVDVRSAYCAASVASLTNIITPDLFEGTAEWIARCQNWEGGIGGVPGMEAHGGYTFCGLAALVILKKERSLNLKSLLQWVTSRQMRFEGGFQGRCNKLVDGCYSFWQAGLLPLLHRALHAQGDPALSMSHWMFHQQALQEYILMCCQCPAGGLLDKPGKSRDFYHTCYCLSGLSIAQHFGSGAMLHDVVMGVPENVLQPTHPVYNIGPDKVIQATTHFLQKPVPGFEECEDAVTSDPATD

Row | Compound | inhibition at 0.1 µM [%] | % Inhibition at 10^−7 M [%]
1 | CC(=O)c1ccccc1-c1cc(Cl)ccc1COC(c1ccc(C#N)cc1)c1cncn1C (stereo not shown) [Example 15, 4-(((2′-acetyl-5-chloro(1,1′-biphenyl)-2-yl)methoxy)(1-methyl-1H-imidazol-5-yl)methyl)benzonitrile] | 82 | 
2 | Cn1cncc1C(OCc1ccc(C#N)cc1-c1cccc(Cl)c1)c1ccc(C#N)cc1 (stereo not shown) [Example 34, 3′-chloro-6-(((4-cyanophenyl)(1-methyl-1H-imidazol-5-yl)methoxy)methyl)(1,1′-biphenyl)-3-carbonitrile] | > 97 | 
3 | Cn1cncc1C(OCc1ccc(Cl)cc1-c1cc(Cl)cc(Cl)c1)c1ccc(C#N)cc1 (stereo not shown) [Example 27, 4-((1-methyl-1H-imidazol-5-yl)((3′,5,5′-trichloro(1,1′-biphenyl)-2-yl)methoxy)methyl)benzonitrile] | 47 | 
4 | Cn1cncc1C(OCc1ccc(Cl)cc1-c1ccc(Cl)c(Cl)c1)c1ccc(C#N)cc1 (stereo not shown) [Example 28, 4-((1-methyl-1H-imidazol-5-yl)((3′,4′,5-trichloro(1,1′-biphenyl)-2-yl)methoxy)methyl)benzonitrile] | > 85 | 
5 | Cn1cncc1C(OCc1c(-c2cccc(Cl)c2)cc(C#N)c(=O)n1C)c1ccc(C#N)c(Cl)c1 (stereo not shown) [Example 54, 6-(((3-chloro-4-cyanophenyl)(1-methyl-1H-imidazol-5-yl)methoxy)methyl)-5-(3-chlorophenyl)-1-methyl-2-oxo-1,2-dihydro-3-pyridinecarbonitrile] | 100 | 
6 | Cc1ccc(COC(c2ccc(C#N)cc2)c2cncn2C)c(-c2cccc(Cl)c2)n1 (stereo not shown) [Example 36, 4-(((2-(3-chlorophenyl)-6-methyl-3-pyridinyl)methoxy)(1-methyl-1H-imidazol-5-yl)methyl)benzonitrile] | 70 | 
7 | Cn1cncc1C(OCc1ccc(Cl)cc1-c1cccc(C=O)c1)c1ccc(C#N)cc1 (stereo not shown) [Example 30, 4-(((5-chloro-3′-formyl(1,1′-biphenyl)-2-yl)methoxy)(1-methyl-1H-imidazol-5-yl)methyl)benzonitrile] | 92 | 
8 | COc1cc(-c2cccc(Cl)c2)c(COC(c2ccc(C#N)cc2)c2cncn2C)cn1 (stereo not shown) [Example 39, 4-(((4-(3-chlorophenyl)-6-methoxy-3-pyridinyl)methoxy)(1-methyl-1H-imidazol-5-yl)methyl)benzonitrile] | 74 | 
9 | Cn1cncc1C(OCc1cnc(F)cc1-c1cccc(Cl)c1)c1ccc(C#N)cc1 (stereo not shown) [Example 38, 4-(((4-(3-chlorophenyl)-6-fluoro-3-pyridinyl)methoxy)(1-methyl-1H-imidazol-5-yl)methyl)benzonitrile] | 80 | 
10 | 4-(((5-chloro-4′-(trifluoromethyl)(1,1′-biphenyl)-2-yl)methoxy)(1-methyl-1H-imidazol-5-yl)methyl)benzonitrile [Example 26] |  | 98
11 | Cn1cncc1C(OCc1ccc(Cl)cc1-c1ccc(Cl)cc1)c1ccc(C#N)cc1 (stereo not shown) [Example 11, 4-(((4′,5-dichloro(1,1′-biphenyl)-2-yl)methoxy)(1-methyl-1H-imidazol-5-yl)methyl)benzonitrile] | 92 | 
12 | Cn1cncc1C(OCc1c[nH]c(=O)cc1-c1cccc(Cl)c1)c1ccc(C#N)cc1 (stereo not shown) [Example 44, 4-(((4-(3-chlorophenyl)-6-oxo-1,6-dihydro-3-pyridinyl)methoxy)(1-methyl-1H-imidazol-5-yl)methyl)benzonitrile] | 89 | 
13 | Cn1cncc1C(OCc1cnc(C#N)cc1-c1cccc(Cl)c1)c1ccc(C#N)cc1 (stereo not shown) [Example 40, 4-(3-chlorophenyl)-5-(((4-cyanophenyl)(1-methyl-1H-imidazol-5-yl)methoxy)methyl)-2-pyridinecarbonitrile] | > 83 | 
14 | Cn1cncc1C(OCc1ccc(Cl)cc1-c1cccc2ccccc12)c1ccc(C#N)cc1 (stereo not shown) [Example 12, 4-(((4-chloro-2-(1-naphthyl)benzyl)oxy)(1-methyl-1H-imidazol-5-yl)methyl)benzonitrile] | 92 | 
15 | Cc1ccc(-c2cc(Cl)ccc2COC(c2ccc(C#N)cc2)c2cncn2C)cc1C (stereo not shown) [Example 17, 4-(((5-chloro-3′,4′-dimethyl(1,1′-biphenyl)-2-yl)methoxy)(1-methyl-1H-imidazol-5-yl)methyl)benzonitrile] | > 85 | 
16 | Cn1cncc1C(OCc1ccc(Cl)cc1-c1cccc(Cl)c1)c1ccc(C#N)cc1 (stereo not shown) [Example 6, 4-(((3′,5-dichloro(1,1′-biphenyl)-2-yl)methoxy)(1-methyl-1H-imidazol-5-yl)methyl)benzonitrile] | > 91 | 
17 | Cn1cncc1C(OCc1ccc(Cl)nc1-c1cccc(Cl)c1)c1ccc(C#N)cc1 (stereo not shown) [Example 35, 4-(((6-chloro-2-(3-chlorophenyl)-3-pyridinyl)methoxy)(1-methyl-1H-imidazol-5-yl)methyl)benzonitrile] | 96 | 
18 | COc1ccc(-c2cc(Cl)ccc2COC(c2ccc(C#N)cc2)c2cncn2C)cc1OC (stereo not shown) [Example 21, 4-(((5-chloro-3′,4′-dimethoxy(1,1′-biphenyl)-2-yl)methoxy)(1-methyl-1H-imidazol-5-yl)methyl)benzonitrile] | 91 | 
19 | Cn1cncc1C(OCc1ccc(Cl)cc1-c1ccccc1Cl)c1ccc(C#N)cc1 (stereo not shown) [Example 3, 4-(((2′,5-dichloro(1,1′-biphenyl)-2-yl)methoxy)(1-methyl-1H-imidazol-5-yl)methyl)benzonitrile] | 90 | 
20 | Cn1cncc1C(OCc1ccc(C#N)cc1NS(=O)(=O)c1cccs1)c1ccc(C#N)cc1 (stereo not shown) [Example 46, N-(5-cyano-2-(((4-cyanophenyl)(1-methyl-1H-imidazol-5-yl)methoxy)methyl)phenyl)-2-thiophenesulfonamide] | 100 | 

Same assay, conditions: test compound at 10^−8 M; 3H-farnesyldiphosphate 0.6 μM, H-Ras 5.0 μM, 37° C., 30 minutes

Row | Compound | inhibition at 0.01 µM [%] | % Inhibition at 10^−8 M [%]
21 | N#Cc1ccc(C(O)(COc2ccc(C#N)cc2-c2ccc(OC(F)(F)F)cc2)c2cncs2)cc1 (stereo not shown) [Example 82, 6-(2-(4-cyanophenyl)-2-hydroxy-2-(1,3-thiazol-5-yl)ethoxy)-4′-(trifluoromethoxy)-1,1′-biphenyl-3-carbonitrile] | 15 | 
22 | Cn1cncc1C(O)(COc1ccc(C#N)cc1-c1ccc2c(c1)OC(F)(F)O2)c1ccc(C#N)cc1 (stereo not shown) [Example 79, 4-(2-(4-cyanophenyl)-2-hydroxy-2-(1-methyl-1H-imidazol-5-yl)ethoxy)-3-(2,2-difluoro-1,3-benzodioxol-5-yl)benzonitrile] | 96 | 
23 | Cn1cncc1C(F)(COc1ccc(C#N)cc1-c1ccc(F)c(Cl)c1)c1ccc(C#N)cc1 (stereo not shown) [Example 66, 3′-chloro-6-(2-(4-cyanophenyl)-2-fluoro-2-(1-methyl-1H-imidazol-5-yl)ethoxy)-4′-fluoro-1,1′-biphenyl-3-carbonitrile] | 93 | 
24 | Cn1cncc1C(O)(COc1ccc(C#N)cc1-c1ccc(OC(F)(F)F)cc1)c1ccc(C#N)cc1 (stereo not shown) [Example 63, 6-(2-(4-cyanophenyl)-2-hydroxy-2-(1-methyl-1H-imidazol-5-yl)ethoxy)-4′-(trifluoromethoxy)-1,1′-biphenyl-3-carbonitrile] |  | 97
25 | CCCOc1ccc(-c2cc(C#N)ccc2COC(c2ccc(C#N)cc2)c2cncn2C)cn1 (stereo not shown) [Example 92, 4-(((4-cyanophenyl)(1-methyl-1H-imidazol-5-yl)methoxy)methyl)-3-(6-propoxypyridin-3-yl)benzonitrile] | 94 | 
26 | CN(CC(O)(c1ccc(C#N)cc1)c1cncn1C)c1ccc(C#N)cc1-c1ccc(OC(F)(F)F)cc1 (stereo not shown) [Example 86, 6-((2-(4-cyanophenyl)-2-hydroxy-2-(1-methyl-1H-imidazol-5-yl)ethyl)(methyl)amino)-4′-(trifluoromethoxy)-1,1′-biphenyl-3-carbonitrile] | 94 | 
27 | Cn1cncc1C(O)(COc1ccc(C#N)cc1-c1cccc2cccnc12)c1ccc(C#N)cc1 (stereo not shown) [Example 59, 4-(2-(4-cyanophenyl)-2-hydroxy-2-(1-methyl-1H-imidazol-5-yl)ethoxy)-3-quinolin-8-ylbenzonitrile] | 83 | 
28 | Cn1cncc1C(F)(COc1ccc(C#N)cc1-c1ccc2c(c1)OCO2)c1ccc(C#N)cc1 (stereo not shown) [Example 56, 3-(1,3-benzodioxol-5-yl)-4-(2-(4-cyanophenyl)-2-fluoro-2-(1-methyl-1H-imidazol-5-yl)ethoxy)benzonitrile] | 97 | 
29 | Cn1cncc1C(F)(COc1ccc(C#N)cc1-c1cc(Cl)cc(Cl)c1)c1ccc(C#N)cc1 (stereo not shown) [Example 74, 3′,5′-dichloro-6-(2-(4-cyanophenyl)-2-fluoro-2-(1-methyl-1H-imidazol-5-yl)ethoxy)-1,1′-biphenyl-3-carbonitrile] | 95 | 
30 | COc1cccc(-c2cc(C#N)ccc2N(C)CC(F)(c2ccc(C#N)cc2)c2cncn2C)c1 (stereo not shown) [Example 85, 6-((2-(4-cyanophenyl)-2-fluoro-2-(1-methyl-1H-imidazol-5-yl)ethyl)(methyl)amino)-3′-methoxy-1,1′-biphenyl-3-carbonitrile] | 65 | 

Same assay, conditions: test compound at 10^−9 M (stated in the cell); 3H-farnesyldiphosphate 0.6 μM, H-Ras 5.0 μM, 37° C., 30 minutes

Row | Compound | % Inhibition at 10^−9 M
31 | Cn1cncc1[C@](O)(COc1ccc(C#N)cc1-c1ccc(OC(F)(F)F)cc1)c1ccc(C#N)cc1 (single isomer, unassigned) [Example 93] | 90 (10^−9M) %
